Measurements published in PMC12621184, “Synthesis and Pharmacological Characterization of Nociceptin/Orphanin FQ Dimeric Ligands” (Journal of Medicinal Chemistry, 2025).
Several values for one entry are separate records, joined by “and”; a condition that tells them apart may be missing. Equal entries are not always repeated. Bridge positions count the residues as written; N and C are the ends. Peptide text beside a SMILES is read from it. I, II: the chains in the order shown.

Legend:
human μ opioid receptor = target: T1, human μ opioid receptor (Homo sapiens, UniProt P35372); experiment: Calcium mobilization assay, CHO cells with μ receptor and chimeric G protein; assay type: cell-based; conditions: CHO cells coexpressing human μ receptor and Gαqi5; 5 experiments in duplicate; read-out: calcium mobilization at μ receptor, concentration up to which inactive
T1 construct: expressed in transfected cells
Method: (§1) Chinese hamster ovary (CHO) cells stably coexpressing the human NOP, μ, or κ opioid receptors and the Gαqi5 protein or the human δ and the GαqG66Di5 protein were used in this assay. , Cells were cultured in DMEM/F-12 (1:1) medium supplemented with 10% FBS, 2 mM L-glutamine, […], 100 IU/mL penicillin, and 100 IU/mL streptomycin. Cells were maintained at 37 °C in a humidified atmosphere with 5% CO2 and were seeded at 50 000 cells/well into 96-well black, clear-bottom plates 24 h before test. Loading for 45 min with a solution consisting of HBSS supplemented with 2.5 mM probenecid, 3 μM Fluo-4 AM, and 0.01% pluronic acid ensures the calcium-sensitive dye (Fluo-4) reaches the needed concentration inside the cell, while the exchange of the solution with 100 μL/well of buffer consisting of HBSS with 20 mM HEPES, 2.5 mM probenecid, and 500 μM Brilliant Black allows for fluorescence background to decrease. Serial dilutions of ligands were prepared in HBSS buffer with 20 mM HEPES and 0.02% bovine serum albumin (BSA) to minimize the ligands’ stickiness to plasticware. The automated microplate reader FlexStation II (Molecular Devices, CA, US) was employed at 37 °C to detect changes in fluorescence intensity. The effects of all compounds were expressed as the maximum change in percentage over the baseline fluorescence measured in samples treated with vehicles. […]

human κ opioid receptor = target: T2, human κ opioid receptor (Homo sapiens, UniProt P41145); experiment: Calcium mobilization assay, CHO cells with κ receptor and chimeric G protein; assay type: cell-based; conditions: CHO cells coexpressing human κ receptor and Gαqi5; 5 experiments in duplicate; read-out: calcium mobilization at κ receptor, concentration up to which inactive
T2 construct: expressed in transfected cells
Method: as §1

[1] = test system: mouse vas deferens from NOP(−/−) mice; experiment: Electrically stimulated mouse vas deferens bioassay, NOP(−/−) tissues; conditions: mVD from CD-1 NOP(−/−) mice; 5 experiments
Method: This study was approved by the Animal Welfare Body of the University of Ferrara and by the Italian Ministry of Health (authorization number CBCC2.N.BXI). Experiments were performed on an isolated mouse vas deferens. All experiments were conducted with mice bred and housed in the University of Ferrara’s animal facility under specific pathogen-free conditions (SPF). All mice were housed in cages with individual ventilation, with a constant temperature of 21 °C, 60% humidity, and a 12 h light/dark cycle. Food and water were provided ad libitum. CD-1 NOP(+/+) and CD-1 NOP(−/−) male mice, aged 9 to 12 months, were used. Animals were sacrificed on the day of the experiment with CO2 overdose. Bioassay experiments were performed as previously described. The tissues were suspended in 5 mL organ bath containing Krebs solution (NaCl 118.5 […]). The Krebs solution was oxygenated with 95% O2 and 5% CO2 and the temperature set at 33 °C with a resting tension of 0.3 g applied to the tissues. Tissues were stimulated through two platinum electrodes with a supramaximal rectangular pulse of 1 ms duration, 0.05 Hz frequency, and 80 V of amplitude. The electrically evoked contractions were measured isotonically by means of Basile strain gauge transducers (Basile, IT) and a recorder with a Power Lab 8 instrument (ADInstruments, CO, U.S.). Following an equilibration period of approximately 60 min, the contractions induced by electrical field stimulation were stable. At this time, cumulative concentration response curves were carried out.
Concentration-response curves to agonists were analyzed by a four-parameter logistic nonlinear regression model: Effect = baseline + (E max – baseline)/(1 + 10^((logEC50–log[ligand])slope)). […] Experimental data were expressed as mean ± sem of at least 5 experiments. Potency values were expressed as the mean and CL95%. In vitro E max values were analyzed by one-way ANOVA, while in vivo latency data were evaluated by one-way ANOVA followed by Dunnett’s post hoc test. […]

[2] = test system: loss of the righting reflex (RR) in mice; experiment: Loss of the righting reflex assay in mice; assay type: in vivo, mouse; conditions: icv
Method: All of the experimental procedures adopted in the in vivo studies comply with the European Directive 2010/63/EU on protecting animals used for scientific purposes and Italian Legislative Decree no. 26 of March 4, 2014. These experiments were approved by the Animal Welfare Body of the University of Ferrara and by the Ministry of Health (authorization number 677/2024-PR). In vivo studies have been reported following ARRIVE guidelines. All experiments were conducted with mice bred and housed in the University of Ferrara’s animal facility under specific pathogen-free conditions. All mice were housed in cages with individual ventilation, with a constant temperature of 21 °C, 60% humidity, and a 12 h light/dark cycle. Food and water were provided ad libitum. CD-1 male and female mice, aged 2 to 4 months, were used. Details about the generation of NOP(−/−) and NOP(+/+) mice have been published previously; , these mice have been backcrossed on CD-1 strain in our laboratories. NOP(+/+) and NOP(−/−) littermates were obtained by mating with NOP(±) mice. All mice were genotyped using the polymerase chain reaction previously described. All mice were used only once. The RR assay was performed as previously described. […] Diazepam 15 mg/kg was injected ip. When the animals lost RR, they were placed in a plastic cage, and the time was recorded by an expert observer, blind to drug treatments and/or genotype. Animals were judged to have regained the RR response when they could correct themselves three times within 30 s. Sleeping time is defined as the amount of time between the loss and regaining of the RR; it was rounded to the nearest minute.
Concentration-response curves to agonists were analyzed by a four-parameter logistic nonlinear regression model: Effect = baseline + (E max – baseline)/(1 + 10^((logEC50–log[ligand])slope)). […] Experimental data were expressed as mean ± sem of at least 5 experiments. Potency values were expressed as the mean and CL95%. In vitro E max values were analyzed by one-way ANOVA, while in vivo latency data were evaluated by one-way ANOVA followed by Dunnett’s post hoc test. The proportion of mice losing the righting reflex was compared by Fisher’s exact test performed on raw data. GraphPad Prism 10.0 software was used for all of the analyses. The terminology employed is consistent with the International Union of Basic and Clinical Pharmacology (IUPHAR) recommendations. ,

human NOP = human NOP (Homo sapiens, UniProt P41146); experiment: Calcium mobilization assay, CHO cells with NOP receptor and chimeric G protein; assay type: cell-based; parameters: expressed in transfected cells
Chain of human NOP (P41146 whole entry): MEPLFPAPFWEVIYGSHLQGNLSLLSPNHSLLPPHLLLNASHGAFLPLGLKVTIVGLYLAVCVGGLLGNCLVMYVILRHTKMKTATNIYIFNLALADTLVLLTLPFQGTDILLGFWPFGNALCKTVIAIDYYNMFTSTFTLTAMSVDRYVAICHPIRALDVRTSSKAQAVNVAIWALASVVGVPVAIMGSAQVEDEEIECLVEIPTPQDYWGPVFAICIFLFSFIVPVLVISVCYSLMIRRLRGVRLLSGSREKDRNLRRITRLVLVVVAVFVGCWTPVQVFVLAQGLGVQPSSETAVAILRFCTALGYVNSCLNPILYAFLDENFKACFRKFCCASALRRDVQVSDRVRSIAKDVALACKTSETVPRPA

T2 sequence (P41145 whole entry): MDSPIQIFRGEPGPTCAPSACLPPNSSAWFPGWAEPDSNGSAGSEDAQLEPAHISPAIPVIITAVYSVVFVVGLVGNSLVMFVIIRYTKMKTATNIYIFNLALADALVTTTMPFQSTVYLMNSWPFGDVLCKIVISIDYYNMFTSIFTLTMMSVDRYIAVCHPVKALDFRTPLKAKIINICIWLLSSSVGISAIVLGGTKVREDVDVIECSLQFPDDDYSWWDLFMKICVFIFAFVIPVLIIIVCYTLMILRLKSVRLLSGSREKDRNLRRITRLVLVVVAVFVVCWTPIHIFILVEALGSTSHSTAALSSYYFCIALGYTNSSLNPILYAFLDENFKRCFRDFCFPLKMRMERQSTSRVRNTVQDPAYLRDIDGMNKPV
T1 sequence (P35372 whole entry): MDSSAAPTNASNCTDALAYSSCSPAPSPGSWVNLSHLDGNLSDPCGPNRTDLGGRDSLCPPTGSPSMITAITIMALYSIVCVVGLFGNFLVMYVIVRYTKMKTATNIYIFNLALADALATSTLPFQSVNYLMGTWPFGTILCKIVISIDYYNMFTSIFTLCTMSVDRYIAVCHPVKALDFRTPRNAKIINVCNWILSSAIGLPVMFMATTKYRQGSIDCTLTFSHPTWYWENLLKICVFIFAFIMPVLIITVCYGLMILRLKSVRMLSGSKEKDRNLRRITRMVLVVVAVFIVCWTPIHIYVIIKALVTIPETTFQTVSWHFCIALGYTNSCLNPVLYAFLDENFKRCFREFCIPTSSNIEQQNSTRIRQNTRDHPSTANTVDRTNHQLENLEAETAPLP

C[C@H](NC(=O)CNC(=O)[C@@H](NC(=O)[C@H](Cc1ccccc1)NC(=O)CNC(=O)CNC(=O)[C@@H](N)Cc1ccccc1)[C@@H](C)O)C(=O)N[C@@H](CCCNC(=N)N)C(=O)N[C@@H](CCCCN)C(=O)N[C@@H](CO)C(=O)N[C@@H](C)C(=O)N[C@@H](CCCNC(=N)N)C(=O)N[C@@H](CCCCN)C(=O)N[C@@H](CSSC[C@H](NC(=O)[C@H](CCCCN)NC(=O)[C@H](CCCNC(=N)N)NC(=O)[C@H](C)NC(=O)[C@H](CO)NC(=O)[C@H](CCCCN)NC(=O)[C@H](CCCNC(=N)N)NC(=O)[C@H](C)NC(=O)CNC(=O)[C@@H](NC(=O)[C@H](Cc1ccccc1)NC(=O)CNC(=O)CNC(=O)[C@@H](N)Cc1ccccc1)[C@@H](C)O)C(=O)N[C@@H](C)C(=O)N[C@@H](CC(N)=O)C(=O)N[C@@H](CCC(N)=O)C(N)=O)C(=O)N[C@@H](C)C(=O)N[C@@H](CC(N)=O)C(=O)N[C@@H](CCC(N)=O)C(N)=O [1h, [[Cys^14]N/OFQ-NH2]2] (I: H-FGGFTGARKSARKCANQ-NH2 / II: H-FGGFTGARKSARKCANQ-NH2; disulfide I:14-II:14; N-terminus assumed)
EC50 (human μ opioid receptor): > 1000 nM
EC50 (human κ opioid receptor): > 1000 nM
effect in mVD tissues from NOP(−/−) mice (in words) [1]: no effect
mice that lost the RR, 3 nmol ([2]; 3 nmol, CD-1 mice, N = 8–10 per group): 75%
mice that lost the RR, 10 nmol ([2]; 10 nmol, CD-1 mice, N = 8–10 per group): all mice
sleep duration (interval between loss and recovery of the RR) ([2]; 3 and 10 nmol, only mice that lost the RR, experimental cutoff 420 min): ≥ 420 min
potency in eliciting loss of the RR relative to N/OFQ ([2]; mice, vs N/OFQ (and N/OFQ-NH2)): 3 fold
duration of the effect on RR ([2]; experimental cutoff 7 h): ≥ 7 h
EC50 (human NOP; CHO cells coexpressing human NOP and Gαqi5, Fluo-4, 37 °C, mean (CL95%), N = 5 experiments in duplicate, read-out: Ca^2+ mobilization pEC50 (CL95%) (converted)): < 1 nM and 0.724 nM
Ca^2+ mobilization E max ± sem (human NOP; CHO cells coexpressing human NOP and Gαqi5, maximum change in percentage over baseline fluorescence, mean ± sem, N = 5 in duplicate): 241 ± 38 % over the baseline
selectivity for the NOP over classical opioid receptors (human NOP; calcium mobilization, NOP vs μ, δ, κ receptors): more than 1000 fold
